# According to US9266939B2, “Compositions comprising natriuretic peptides and methods of use thereof” (Alexion Pharmaceuticals, Inc., priority 2010, dated 2016):
# Marks after values point to notes of the source that are not given here.
# Key:
# Fgfr3^369/+ mice = assay: Efficacy of SC NC2st on rescue of the ACH bone phenotype in Fgfr3^369/+ mice; type: in vivo; conditions: 61 days
# From the text: The study was designed to evaluate the effect of daily subcutaneous (SC) administration of NC2 Streptag (NC2st) on rescue of the achondroplasia skeletal disorders in the mouse model of the disease, the Fgfr3^369/+ mice.
# Fgfr3^369/+ mice were created by an amino acid substitution (Gly to Cys) at position 369 in the mouse Fibroblast Growth Factor Receptor 3 (Fgfr3) gene (Chen et al., J. Clin. Invest. 104(11): 1517-1525, 1999). Substitution 369 (Gly369Cys) in mouse Fgfr3 gene causes dwarfism with features mimicking human achondroplasia. […] Thus, the Fgfr3^369+ mouse is an appropriate model for non-clinical studies evaluating the treatment of achondroplasia.
# The study was an open label parallel and randomized control study. Treatments were open label, and Table 5 provides details of the treatment groups.
# Injections were scheduled twice daily at approximately 8:00 to 10:00 AM and 8:00 to 10:00 PM. The dose volume was set at 4 ml/kg. The actual volume administered to each mouse was calculated and adjusted based on the daily body weight of each animal measured prior to the AM injection. Vehicle or NC2st was injected SC twice daily into the scapular or lumbar region of Fgfr3^369/+ animals from the third day after birth to 63 days of age.
# Ex vivo radiographs of whole body, rib cage and skull were taken using a Faxitron model MX-20 DC4 under constant conditions (26 kV, 10 sec at 1×, 3× and 3× magnification, respectively). Bone measurements were performed on the radiographic images of all animals in a blinded fashion using the software Image Processing and Analysis in Java (ImageJ).
# Bone samples were cleaned of excess tissue (not scraped) and fixed. Length of femur and tibia was measured using a caliper.
# NPR-B [1] = target: T1, NPR-B (Homo sapiens, UniProt P20594); assay: Membrane guanylyl cyclase (cGMP) assay, NPR-B; type: biochemical; conditions: second NPR-B membrane assay (FIG. 21B)
# T1 sequence (P20594 23-1047): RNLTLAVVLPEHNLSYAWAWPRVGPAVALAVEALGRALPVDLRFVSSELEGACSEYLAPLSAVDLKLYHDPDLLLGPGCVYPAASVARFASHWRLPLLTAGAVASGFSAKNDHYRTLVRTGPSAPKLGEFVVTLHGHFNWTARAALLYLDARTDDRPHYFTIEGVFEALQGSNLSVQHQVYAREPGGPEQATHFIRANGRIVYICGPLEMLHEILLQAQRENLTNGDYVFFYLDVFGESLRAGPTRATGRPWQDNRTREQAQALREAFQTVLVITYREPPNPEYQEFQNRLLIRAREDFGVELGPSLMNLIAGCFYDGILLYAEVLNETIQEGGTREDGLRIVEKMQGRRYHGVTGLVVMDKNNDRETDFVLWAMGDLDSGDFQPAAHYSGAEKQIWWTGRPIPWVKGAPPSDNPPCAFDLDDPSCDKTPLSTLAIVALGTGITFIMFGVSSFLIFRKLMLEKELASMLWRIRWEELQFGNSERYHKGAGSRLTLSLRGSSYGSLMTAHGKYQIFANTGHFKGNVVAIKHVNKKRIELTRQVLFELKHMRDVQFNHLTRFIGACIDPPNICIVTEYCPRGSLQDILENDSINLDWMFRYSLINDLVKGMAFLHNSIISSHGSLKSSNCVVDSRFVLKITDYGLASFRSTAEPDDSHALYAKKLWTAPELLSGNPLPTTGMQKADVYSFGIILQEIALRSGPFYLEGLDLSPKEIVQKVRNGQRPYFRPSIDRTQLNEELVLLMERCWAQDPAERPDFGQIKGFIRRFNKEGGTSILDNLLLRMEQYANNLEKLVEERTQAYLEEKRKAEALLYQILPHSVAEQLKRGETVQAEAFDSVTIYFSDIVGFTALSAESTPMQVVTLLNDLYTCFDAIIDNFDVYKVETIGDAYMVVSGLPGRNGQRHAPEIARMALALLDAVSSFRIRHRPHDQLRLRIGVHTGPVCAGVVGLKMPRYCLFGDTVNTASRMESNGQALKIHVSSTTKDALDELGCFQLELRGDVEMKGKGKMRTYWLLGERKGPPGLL
# NPR-B [2] = target: T1, NPR-B; assay: Whole cell guanylyl cyclase (cGMP) assay, NPR-B; type: cell-based; set-up: expressed in transfected cells
# In short: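 HEK293S cells, transiently transfected or stably expressing human NPR-B, treated in triplicate with increasing test-protein concentrations in serum-free DMEM with 1 mM IBMX and 0.5% BSA, 37° C, 30 min to one hour; CNP as reference. Lysate cGMP measured by Catchpoint kit; four-parameter logistic fit of dose-response curves.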
# [3] = Tx-100: 100 mg/kg SC twice daily
# [4] = NPR-B whole cell assay (FIG. 21C)
# [5] = projected from relative activities of CNP22 and NC2st in NPR-B whole cell assays
substance,measurement,setting,value
"NC2st: Fc-CNP fusion: Strep-tag II, TEV site, human IgG-1 Fc, 16-amino acid glycine-rich linker, CNP22; SEQ ID NO: 502","Cervical vertebrae length, % change vs Vehicle",Fgfr3^369/+ mice; Tx-10: 10 mg/kg SC twice daily,+17.6%*
same,"Femur length, % change vs Vehicle",Fgfr3^369/+ mice; Tx-10: 10 mg/kg SC twice daily,+3.85%*
same,"Lumbar vertebrae length, % change vs Vehicle",Fgfr3^369/+ mice; Tx-10: 10 mg/kg SC twice daily,+8.64%*
same,"Naso-anal length, % change vs Vehicle",Fgfr3^369/+ mice; Tx-10: 10 mg/kg SC twice daily,+8.99%*
same,"Neck-anal length, % change vs Vehicle",Fgfr3^369/+ mice; Tx-10: 10 mg/kg SC twice daily,+12.4%*
same,"Occipital-front distance, % change vs Vehicle",Fgfr3^369/+ mice; Tx-10: 10 mg/kg SC twice daily,+0.89%
same,"Skull Circularity index, % change vs Vehicle",Fgfr3^369/+ mice; Tx-10: 10 mg/kg SC twice daily,−1.52%
same,"Sternum length, % change vs Vehicle",Fgfr3^369/+ mice; Tx-10: 10 mg/kg SC twice daily,+6.67%*
same,"Tail length, % change vs Vehicle",Fgfr3^369/+ mice; Tx-10: 10 mg/kg SC twice daily,+7.38%*
same,"Thoracic vertebrae length, % change vs Vehicle",Fgfr3^369/+ mice; Tx-10: 10 mg/kg SC twice daily,+11.6%*
same,"Tibia length, % change vs Vehicle",Fgfr3^369/+ mice; Tx-10: 10 mg/kg SC twice daily,+6.50%*
same,"Total CTL vertebrae length, % change vs Vehicle",Fgfr3^369/+ mice; Tx-10: 10 mg/kg SC twice daily,+11.6%*
same,"Cervical vertebrae length, % change vs Vehicle",Fgfr3^369/+ mice; [3],+24.3%*
same,"Femur length, % change vs Vehicle",Fgfr3^369/+ mice; [3],+3.85%*
same,"Lumbar vertebrae length, % change vs Vehicle",Fgfr3^369/+ mice; [3],+13.6%*
same,"Naso-anal length, % change vs Vehicle",Fgfr3^369/+ mice; [3],+14.3%*
same,"Neck-anal length, % change vs Vehicle",Fgfr3^369/+ mice; [3],+21.1%*
same,"Occipital-front distance, % change vs Vehicle",Fgfr3^369/+ mice; [3],+0.76%
same,"Skull Circularity index, % change vs Vehicle",Fgfr3^369/+ mice; [3],−2.88%*
same,"Sternum length, % change vs Vehicle",Fgfr3^369/+ mice; [3],+13.7%*
same,"Tail length, % change vs Vehicle",Fgfr3^369/+ mice; [3],+7.22%*
same,"Thoracic vertebrae length, % change vs Vehicle",Fgfr3^369/+ mice; [3],+25.3%*
same,"Tibia length, % change vs Vehicle",Fgfr3^369/+ mice; [3],+8.13%*
same,"Total CTL vertebrae length, % change vs Vehicle",Fgfr3^369/+ mice; [3],+20.9%*
same,efficacy relative to CNP,NPR-B [1],61%
same,potency relative to CNP (times less than that of CNP),NPR-B [1],19 times
same,efficacy relative to CNP,NPR-B [2]; [4],84%
same,potency relative to CNP (times less than that of CNP),NPR-B [2]; [4],83 times
same,projected targeted NC2st concentration to achieve 50% reversal of ACH phenotype,NPR-B [2]; [5],345 (±95 S.D.) nM
same,projected targeted NC2st concentration to achieve >100% reversal of ACH phenotype,NPR-B [2]; [5],1214 (±446 S.D.) nM
